Measured values: patent US20090060851A1, “USE OF IDEBENONE FOR THE PREPARATION OF A TOPICALLY-APPLIED DEPIGMENTATION COMPOSITION AND CORRESPONDING COMPOSITION” (priority 2005, published 2009)

Tests used:
SK-MEL-28 [1] = assay: Cell number quantitation with violet crystal; format: cell-based, human
Method: Cells: The study was carried out using a cell line derived from human melanoma, provided by ABAC (Asociación Banco Argentino de Células—Cell Bank of Argentina), with melanin synthesis capability (SK-MEL-28, ATCC origin). […] Study of in vitro compounds: […] After 24 hours have lapsed, the medium was replaced with 990 μl of fresh medium. 10 μl of sterile vehicle (50% propylene glycol, 30% ethanol and 20% distilled water) containing different concentrations of the compounds to be evaluated were added to this fresh medium. […] On the fourth day, the cells were not treated, and the remaining adherent cells were assayed on the fifth day according to the methods described below. The cells were thus continuously exposed to the compounds under study for the 5 days the culture lasted. All the concentrations of the compounds were studied in triplicate, comparing the mean of the 3 wells treated with the compounds with those treated with the vehicle alone. Cell number quantitation with violet crystal: A stain with a violet crystal aqueous solution was used for the purpose of determining the number of cells adhering to the plastic surviving in vitro treatment by means of indirect methods. […] The dishes were stained for 5 minutes at room temperature on a rotary platform, with gentle stirring. Then the excess colorant was decanted by turning the dish over and the entire dish was submerged 4 times in distilled water in a suitable container. After rinsing, the dishes were turned over and allowed to drip on absorbent paper until the excess water was completely removed. […] The plates were finally placed on a rotary agitator for 30 minutes at room temperature. […] In order to determine the fraction of cells surviving treatment at a specific concentration of the experimental agent, the OD590 of the treated wells (average of three measurements) was divided by the OD590 of the wells used with a control vehicle (average of three measurements).

SK-MEL-28 [2] = assay: Dopaquinone content determination (OD475) in SK-MEL cells; format: cell-based, human
Method: In vitro determinations were performed following the method devised by Dooley et al. (Skin Pharmacol. 1994; 7:188-200) in order to evaluate the capacity of idebenone to inhibit melanogenesis, according to the process described below:
Cells: The study was carried out using a cell line derived from human melanoma, provided by ABAC (Asociación Banco Argentino de Células—Cell Bank of Argentina), with melanin synthesis capability (SK-MEL-28, ATCC origin). The cells were grown in plastic culture bottles or in 24-well plastic dishes in a modified Eagle medium (DMEM) supplemented with 10% fetal bovine serum (FBS) and were maintained at 37° C. in a 5% CO2 atmosphere.
Study of in vitro compounds: SK-MEL cells detached with trypsin were seeded on plastic 24-well dishes (density of 1×10^5 cells per well) and incubated for 24 hours in modified Eagle medium (DMEM) supplemented with 10% fetal bovine serum (FBS) prior to treating with the compound to be evaluated. After 24 hours have lapsed, the medium was replaced with 990 μl of fresh medium. 10 μl of sterile vehicle (50% propylene glycol, 30% ethanol and 20% distilled water) containing different concentrations of the compounds to be evaluated were added to this fresh medium.
Decimal dilutions of each compound in the sterile vehicle were prepared in order to obtain final concentrations of the compound to be studied ranging between 1.000 and 0.01 μg/ml. […]
[…] […] All the concentrations of the compounds were studied in triplicate, comparing the mean of the 3 wells treated with the compounds with those treated with the vehicle alone.
Melanin content determination: The SK-MEL cell melanin content was determined after stirring the culture medium and washing the cells with PBS. The cells were then lysated by means of adding 1 ml of 1N NaOH to each well and repeated manual pipetting. The raw cell extract was analyzed using a spectrophotometer at 400 and 475 nm to determine the melanin and dopaquinone content, respectively. The results were expressed as a percentage of the cell cultures treated with the vehicle.

skin of nude adult mice = assay: Epidermal and dermal morphometry, mouse skin; format: in vivo
Method: Creams containing 5% and 2.5% w/w idebenone (IDB) in a neutral phase were prepared. Said creams and a cream having an identical formulation but without idebenone were applied on nude adult mice with 3 months of age. The cream with idebenone was applied on the right half of the body of the animals and the control cream on the left half according to the scheme detailed below. The animals were sacrificed 1, 2, 3 or 4 hours after applying the cream (p.a.). • Batch A: animal treated with 5% IDB (1 hour p.a.) • Batch B: animal treated with 2.5% IDB (1 hour p.a.) • Batch C: animal treated with 5% IDB (2 hours p.a.) • Batch D: animal treated with 2.5% IDB (2 hours p.a.) • Batch E: animal treated with 5% IDB (3 hours p.a.) • Batch F: animal treated with 2.5% IDB (3 hours p.a.) • Batch G: animal treated with 5% IDB (4 hours p.a.) • Batch H: animal treated with 2.5% IDB (4 hours p.a.)
Morphological and morphometric studies: Thickness of the epidermis, the horny layer, the papillary dermis and reticular dermis was measured in at least 10 different points, the result being expressed as the average of the 10 measurements. Capillary vessel diameter was also measured in at least 10 points, expressing them by means of their average. The measurements were carried out using a Quantimet 500+ (Leica) image processing equipment. […]

[3] = Example 9 (similar to Example 6), dilution −2
[4] = Example 9 (similar to Example 6), dilution −3
[5] = Example 9 (similar to Example 6), dilution −4
[6] = Example 9 (similar to Example 6), dilution −5
[7] = Example 9 (similar to Example 6), dilution −6
[8] = Example 9 (similar to Example 6), dilution −7
[9] = Example 9 (similar to Example 6), dilution −8
[10] = dilution −1, treated daily 3 days, assayed day 5
[11] = dilution −2, treated 1 day, evaluated third day
[12] = dilution −2, treated daily 3 days, assayed day 5
[13] = dilution −3, treated 1 day, evaluated third day
[14] = dilution −3, treated daily 3 days, assayed day 5
[15] = dilution −4, treated 1 day, evaluated third day
[16] = dilution −4, treated 2 days, evaluated fourth day
[17] = dilution −4, treated daily 3 days, assayed day 5
[18] = dilution −4, treated for 5 days (heading: 3 days), evaluated fifth day
[19] = dilution −5, treated 1 day, evaluated third day
[20] = dilution −5, treated 2 days, evaluated fourth day
[21] = dilution −5, treated daily 3 days, assayed day 5
[22] = dilution −5, treated for 5 days (heading: 3 days), evaluated fifth day
[23] = dilution −6, treated 1 day, evaluated third day
[24] = dilution −6, treated 2 days, evaluated fourth day
[25] = dilution −6, treated for 5 days (heading: 3 days), evaluated fifth day

Compound: COC1=C(OC)C(=O)C(CCCCCCCCCCO)=C(C)C1=O [idebenone, 6-(10-hydroxydecyl)-2,3-dimethoxy-5-methyl-1,4-benzoquinone]
- Toxicity for cells (SK-MEL-28 [1]; SK-MEL-28, high concentrations): may be toxic for cells
- Percentage of viable cells (SK-MEL-28 [1]; dilution −1, percentage of control vehicle): 52%
- Percentage of viable cells (SK-MEL-28 [1]; dilution −2, percentage of control vehicle): 82%
- Percentage of viable cells (SK-MEL-28 [1]; dilution −3, percentage of control vehicle): 98%
- Percentage of viable cells (SK-MEL-28 [1]; dilution −4, percentage of control vehicle): 100%
- Percentage of viable cells (SK-MEL-28 [1]; dilution −5, percentage of control vehicle): 100%
- OD475 (dopaquinone) (SK-MEL-28 [2]; [3]): 0.0024
- OD475 Percentage (dopaquinone) (SK-MEL-28 [2]; [3]): 14.45%
- OD475 (dopaquinone) (SK-MEL-28 [2]; [4]): 0.0038
- OD475 Percentage (dopaquinone) (SK-MEL-28 [2]; [4]): 22.89%
- OD475 (dopaquinone) (SK-MEL-28 [2]; [5]): 0.0133
- OD475 Percentage (dopaquinone) (SK-MEL-28 [2]; [5]): 80.12%
- OD475 (dopaquinone) (SK-MEL-28 [2]; [6]): 0.0139
- OD475 Percentage (dopaquinone) (SK-MEL-28 [2]; [6]): 83.73%
- OD475 (dopaquinone) (SK-MEL-28 [2]; [7]): 0.0116
- OD475 Percentage (dopaquinone) (SK-MEL-28 [2]; [7]): 69.87%
- OD475 (dopaquinone) (SK-MEL-28 [2]; [8]): 0.0139
- OD475 Percentage (dopaquinone) (SK-MEL-28 [2]; [8]): 83.73%
- OD475 (dopaquinone) (SK-MEL-28 [2]; [9]): 0.0133
- OD475 Percentage (dopaquinone) (SK-MEL-28 [2]; [9]): 80.12%
- OD475 (dopaquinone) (SK-MEL-28 [2]; [10]): 0.0011
- OD475 expressed as percentage of control (dopaquinone) (SK-MEL-28 [2]; [10]): 9%
- OD475 (dopaquinone) (SK-MEL-28 [2]; [11]): 0.0030
- OD475 Percentage (dopaquinone) (SK-MEL-28 [2]; [11]): 18.75%
- OD475 (dopaquinone) (SK-MEL-28 [2]; [12]): 0.0016
- OD475 expressed as percentage of control (dopaquinone) (SK-MEL-28 [2]; [12]): 14%
- OD475 (dopaquinone) (SK-MEL-28 [2]; [13]): 0.0050
- OD475 Percentage (dopaquinone) (SK-MEL-28 [2]; [13]): 31.25%
- OD475 (dopaquinone) (SK-MEL-28 [2]; [14]): 0.0043
- OD475 expressed as percentage of control (dopaquinone) (SK-MEL-28 [2]; [14]): 37%
- OD475 (dopaquinone) (SK-MEL-28 [2]; [15]): 0.0123
- OD475 Percentage (dopaquinone) (SK-MEL-28 [2]; [15]): 76.87%
- OD475 (dopaquinone) (SK-MEL-28 [2]; [16]): 0.0400
- OD475 Percentage (dopaquinone) (SK-MEL-28 [2]; [16]): 103.62%
- OD475 (dopaquinone) (SK-MEL-28 [2]; [17]): 0.0053
- OD475 expressed as percentage of control (dopaquinone) (SK-MEL-28 [2]; [17]): 46%
- OD475 (dopaquinone) (SK-MEL-28 [2]; [18]): 0.0513
- OD475 Percentage (dopaquinone) (SK-MEL-28 [2]; [18]): 80.66%
- OD475 (dopaquinone) (SK-MEL-28 [2]; [19]): 0.0196
- OD475 Percentage (dopaquinone) (SK-MEL-28 [2]; [19]): 122.5%
- OD475 (dopaquinone) (SK-MEL-28 [2]; [20]): 0.0406
- OD475 Percentage (dopaquinone) (SK-MEL-28 [2]; [20]): 105.18%
- OD475 (dopaquinone) (SK-MEL-28 [2]; [21]): 0.0040
- OD475 expressed as percentage of control (dopaquinone) (SK-MEL-28 [2]; [21]): 35%
- OD475 (dopaquinone) (SK-MEL-28 [2]; [22]): 0.0612
- OD475 Percentage (dopaquinone) (SK-MEL-28 [2]; [22]): 96.22%
- OD475 (dopaquinone) (SK-MEL-28 [2]; [23]): 0.0200
- OD475 Percentage (dopaquinone) (SK-MEL-28 [2]; [23]): 125.0%
- OD475 (dopaquinone) (SK-MEL-28 [2]; [24]): 0.0273
- OD475 Percentage (dopaquinone) (SK-MEL-28 [2]; [24]): 70.72%
- OD475 (dopaquinone) (SK-MEL-28 [2]; [25]): 0.0643
- OD475 Percentage (dopaquinone) (SK-MEL-28 [2]; [25]): 101.10%
- Thicknesses of the papillary dermis and the reticular dermis (skin of nude adult mice; nude mice skin, 5% and 2.5% IDB creams versus control): did not significantly vary
- Effect on epidermal thickness (skin of nude adult mice; nude mice, topically applied): does not substantially modify epidermal thickness
